According to US20150353515A1, “Novel analogs of resveratrol” (priority 2014, published 2015):

What was measured:
[1] = system: RAW 264.7 macrophage cell line (LPS-stimulated NO production); experiment: Nitric oxide inhibition: nitrite quantification with Griess reagent in LPS-stimulated macrophage cells; format: cell-based, mouse; conditions: nitrite in supernatant of LPS (100 ng/ml)-stimulated RAW 264.7 cells, 24 h, lowest tested concentration 25 μM
Text: The mouse BALB/c macrophage cell line, RAW 264.7 BCRC No. 60001 (identical to ATCC number TIB-71), was obtained from Bioresource Collection and Research Center, Taiwan. The cells were maintained according to the protocols being cultured in 50 cm^2 plastic flasks (Nunc, Roskilde, Denmark) with the medium renewed every 3 days. LPS (from Escherichia coli, serotype 0127:B8), trypan blue and all the other chemicals, unless otherwise specified, were purchased from Aldrich-Sigma Chemical Company (St. Louis, Mo., USA).
The cells were cultured with or without a pretreatment by the test compounds and resveratrol of 25, 50, 100, and up to 200 μM as already described. Each value is the mean±SEM of three determinations. *p<0.05, each value was compared with or without the LPS-stimulated group.
The production of NO was determined by measuring the accumulated level of nitrite in the culture supernatant with the Griess reagent in LPS-stimulated macrophage cells. A quantity of 100 μl of a sample aliquot were mixed with 100 μl of the Griess reagent (0.1% N-(1-naphthyl)ethylenediamine, 1% sulfanilamide, and 2.5% phosphoric acid) in a 96-well plate and then incubated at 25° C. for 10 min. The absorbance at 550 nm was measured with an ELISA reader (MR 700, Dynatech Laboratories, Alexandria, Va., USA). NaNO2 was used as the standard to calculate the nitrite concentration.

[2] = system: human umbilical vein endothelial cells (HUVECs) co-cultured with normal human dermal fibroblasts (NHDF); experiment: Anti-angiogenesis: capillary-tube formation assay (Kurabo angiogenesis kit); format: cell-based; conditions: HUVEC tube formation inhibition, HUVEC/NHDF co-culture, 11 d, 1-100 μM
Method: Capillary-tube formation was assayed using the angiogenesis kits (Kurabo, Okayama, Japan) according to the manufacturer's instruction. Briefly, human umbilical vein endothelial cells (HUVECs) co-cultured with normal human dermal fibroblasts (NHDF), which a cultural kit originally developed by Kurabo Co. Ltd., Okayama, Japan, onto 24-well plate were incubated either with or without test compounds and resveratrol respectively at appropriate concentrations (1-100 μM) for 11 d (media replacement was performed at d 1, 4, 7, and 9). The cells were thereafter fixed with 70% cold ethanol, incubated with mouse antihuman CD31 antibody followed by incubation with an alkaline phosphatase conjugate goat antimouse antibody, and then stained with 5-bromo-4-chloro-3-indolyl phosphate/nitro blue tetrazolium to visualize tube network at d-11, respectively. In each assay, randomly selected five fields of view in each well were captured by digital camera under the light microscopy on ×40 magnification. The analysis of tube formation was then carried out by measuring total area and length of tubes per well using analytical software (by Kurabo).

[3] = system: λ-carrageenan-induced paw edema in Wistar rats; experiment: In-vivo carrageenan-induced paw edema study; conditions: rat, 20 mg/kg i.p. single dose in CMC, 5 h after carrageenan
Method: In this study, X-carrageenan was used to stimulate the inflammation on the rear footpad of the rats. Male albino Wistar rats (183-218 g) 4 to 6 weeks old were housed and cared under the guidelines of the Institutional Animal Care and Use Committee at the National Defense Medical Center, Taiwan. The rats were assigned to groups. For each group, 3 rats were used and marked on the tails. one of them being the control. In order to induce inflammation, 50 μl of a 1% λ-carrageenan solution in normal saline was injected into the right hind paw subplantar tissue. The development of paw edema was measured plethysmographically (Basile 7140 plethysmometer, Ugo, Varese, Italy) and recorded prior to this administration. […] Before carrageenan treatment, the volume of each […] footpad was measured (V0). […] After the λ-carrageenan challenge, each paw volume (ml) was measured hourly up to 5 h. The percentage of paw edema and the inhibition of inflammation were calculated. Edema rate (E %) was calculated as follows: E%=(Vt-V0)/V0×100; V0: volume of hind paw before 1% λ-carrageenan administration; Vt: volume of hind paw after 1% carrageenan administration at t h. Percentage of inhibition (1%) was determined as follows: 1%(Ec-Et)/Ec×100; Ec: edema rate of control group; Et: edema rate of the respective test compound at t h. […]

Compound | IC50 [1] [µM] | IC50 [2] [µM] | IC50 ([1]; Mus musculus, RAW264.7) [µM] | IC50 ([2]; Homo sapiens, 264 h) [µM] | Percentage of inhibition of paw edema [3] [%] | paw edema (increase of paw volume) ([3]; p<0.05) [mL]
CC[n+]1c(/C=C/c2ccc(OC)cc2O)sc2ccccc21 [Compound 3, N-Ethyl-2-[(E)-2-(2′-hydroxy-4′-methoxyphenyl)vinyl]benzothiazolium bromide] | < 25 | 31.2 ± 2 |  |  |  | 
CC[n+]1c(/C=C/c2cc(OC)c(O)c(OC)c2)sc2ccccc21 [Compound 5, N-Ethyl-2-[(E)-2-(3′,5′-dimethoxy-4′-hydroxyphenyl)vinyl]benzothiazolium bromide] | < 25 | 21.2 ± 1.6 |  |  |  | 
CC[n+]1c(/C=C/c2ccc(O)c(OC)c2)sc2ccccc21 [Compound 6, N-Ethyl-2-[(E)-2-(4′-hydroxy-3′-methoxyphenyl)vinyl]benzothiazolium bromide] | < 25 | 19.9 ± 2.3 |  |  |  | 
Oc1ccc(/C=C/c2cc(O)cc(O)c2)cc1 [Resveratrol (1), 3,5,4′-trihydroxy-trans-stilbene, reference compound] |  |  | 40 | 47.7 ± 1.1 |  | 
N-Ethyl-2-[(E)-2-(3′,4′,5′-trimethoxyphenyl)vinyl]benzothiazolium bromide [Compound 4] | < 25 | 18.8 ± 1.3 |  |  | 69.5 | 0.21 ± 0.06
